This note sets out measurements from patent US20230159532A1, “PARATHYROID HORMONE (PTH) RECEPTOR ANTAGONISTS AND USES THEREOF” (Crinetics Pharmaceuticals, Inc., priority 2021, published 2023).

Bounds are passed on as bounds.

The assay concerns the target T1, human PTHR1 receptor (Homo sapiens, UniProt Q03431).
T1 construct: purchased Eurofins HTS030M
T1 sequence (Q03431 27-593): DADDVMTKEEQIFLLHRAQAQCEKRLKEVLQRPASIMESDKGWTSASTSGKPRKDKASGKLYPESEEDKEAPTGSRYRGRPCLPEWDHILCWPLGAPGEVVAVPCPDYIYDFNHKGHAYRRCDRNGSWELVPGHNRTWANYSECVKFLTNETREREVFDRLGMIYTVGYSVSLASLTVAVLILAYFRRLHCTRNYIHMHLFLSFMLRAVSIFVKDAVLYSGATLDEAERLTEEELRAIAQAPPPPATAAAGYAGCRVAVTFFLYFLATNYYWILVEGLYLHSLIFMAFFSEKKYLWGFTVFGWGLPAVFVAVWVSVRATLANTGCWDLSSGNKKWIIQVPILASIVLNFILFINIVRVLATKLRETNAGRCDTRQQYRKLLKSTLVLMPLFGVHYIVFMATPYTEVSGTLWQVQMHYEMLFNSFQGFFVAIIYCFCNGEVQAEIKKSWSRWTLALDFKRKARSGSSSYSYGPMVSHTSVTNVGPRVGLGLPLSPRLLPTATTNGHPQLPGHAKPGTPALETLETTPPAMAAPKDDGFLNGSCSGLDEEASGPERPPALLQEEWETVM
The experiment in a line: Competitive antagonist binding assay for hPTH-R1 (radioactive competition binding, SPA beads). Particulars: human PTHR1 membranes, [125I]-[Nle8,18,Tyr34]-PTH(1-34) 0.2 nM, 90 minutes at room temperature; read-out: hPTHR1 Ki. In short, it runs like this:
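Human PTHR1 membranes on SPA beads incubated 90 min at room temperature with compound (typically 0-10,000 nM final) and 0.2 nM [125I]-[Nle8,18,Tyr34]-PTH(1-34) in HEPES buffer with MgCl2, CaCl2, BSA, Triton X-100 and protease inhibitors, pH 7.4. Scintillation signal read; Ki values derived.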
For the compound `CCN1C(=O)N(c2c(F)cc(NCCNCCO)cc2F)c2cc(Cl)cc(C)c2-c2cc(Cl)cnc21` [1-51, 4,13-dichloro-10-[2,6-difluoro-4-({2-[(2-hydroxyethyl)amino]ethyl}amino)phenyl]-8-ethyl-15-methyl-6,8,10-triazatricyclo[9.4.0.0^2,7]pentadeca-1(11),2(7),3,5,12,14-hexaen-9-one], the Ki (usually the equilibrium dissociation constant of an inhibitor or competing ligand from its target) is less than 100 nM.

In the case of `O=C1N(CC2CC2)c2ncc(Cl)cc2-c2ccc(Cl)cc2N1c1c(F)cc(NCCNCCO)cc1F` [1-52, 4,13-dichloro-8-(cyclopropylmethyl)-10-[2,6-difluoro-4-({2-[(2-hydroxyethyl)amino]ethyl}amino)phenyl]-6,8,10-triazatricyclo[9.4.0.0^2,7]pentadeca-1(11),2(7),3,5,12,14-hexaen-9-one], the inhibitory constant (Ki) was less than 100 nM.

Regarding `CCOC(=O)CCCNc1cc(F)c(N2C(=O)N(CC)c3ncc(Cl)cc3-c3ccc(Cl)cc32)c(F)c1` [1-53, ethyl 4-[(4-{4,13-dichloro-8-ethyl-9-oxo-6,8,10-triazatricyclo[9.4.0.0^2,7]pentadeca-1(11),2(7),3,5,12,14-hexaen-10-yl}-3,5-difluorophenyl)amino]butanoate], the Ki was in the range of 1000 to 10000 nM.

In the case of `CCN1C(=O)N(c2c(F)cc(NCCNC)cc2F)c2cc(C#N)ccc2-c2cc(Cl)cnc21` [1-54, 4-chloro-10-(2,6-difluoro-4-{[2-(methylamino)ethyl]amino}phenyl)-8-ethyl-9-oxo-6,8,10-triazatricyclo[9.4.0.0^2,7]pentadeca-1(11),2(7),3,5,12,14-hexaene-13-carbonitrile], the Ki was less than 100 nM.

For the compound `CCN1C(=O)N(c2c(F)cc(NCCNCCO)cc2F)c2cc(C#N)ccc2-c2cc(Cl)cnc21` [1-55, 4-chloro-10-[2,6-difluoro-4-({2-[(2-hydroxyethyl)amino]ethyl}amino)phenyl]-8-ethyl-9-oxo-6,8,10-triazatricyclo[9.4.0.0^2,7]pentadeca-1(11),2(7),3,5,12,14-hexaene-13-carbonitrile], the Ki is less than 100 nM.

In the case of `CCN1C(=O)N(c2c(F)cc(NCCNCCO)cc2F)c2cc(Cl)ccc2-c2cc(C(F)(F)F)cnc21` [1-56, 13-chloro-10-[2,6-difluoro-4-({2-[(2-hydroxyethyl)amino]ethyl}amino)phenyl]-8-ethyl-4-(trifluoromethyl)-6,8,10-triazatricyclo[9.4.0.0^2,7]pentadeca-1(11),2(7),3,5,12,14-hexaen-9-one], the Ki was less than 100 nM.

Take `CCN1C(=O)N(c2c(F)cc(NCCNC)cc2F)c2cc(Cl)ccc2-c2cc(C(F)(F)F)cnc21` [1-57, 13-chloro-10-(2,6-difluoro-4-{[2-(methylamino)ethyl]amino}phenyl)-8-ethyl-4-(trifluoromethyl)-6,8,10-triazatricyclo[9.4.0.0^2,7]pentadeca-1(11),2(7),3,5,12,14-hexaen-9-one]: the Ki was less than 100 nM.

Take `CCN1C(=O)N(c2c(F)cc(NCCNCCCC(=O)O)cc2F)c2cc(C#N)ccc2-c2cc(Cl)cnc21` [1-58, 4-({2-[(4-{4-chloro-13-cyano-8-ethyl-9-oxo-6,8,10-triazatricyclo[9.4.0.0^2,7]pentadeca-1(11),2(7),3,5,12,14-hexaen-10-yl}-3,5-difluorophenyl)amino]ethyl}amino)butanoic Acid]: the Ki was less than 100 nM.

Regarding `CCN1C(=O)N(c2c(F)cc(NCCNCCF)cc2F)c2cc(Cl)ccc2-c2cc(Cl)cnc21` [1-59, 4,13-dichloro-10-[2,6-difluoro-4-({2-[(2-fluoroethyl)amino]ethyl}amino)phenyl]-8-ethyl-6,8,10-triazatricyclo[9.4.0.0^2,7]pentadeca-1(11),2(7),3,5,12,14-hexaen-9-one], the Ki was less than 100 nM.

`CCN1C(=O)N(c2c(F)cc(NCCNCCO)cc2F)c2cc(Cl)cc(F)c2-c2cc(Cl)cnc21` [1-60, 4,13-dichloro-10-[2,6-difluoro-4-({2-[(2-hydroxyethyl)amino]ethyl}amino)phenyl]-8-ethyl-15-fluoro-6,8,10-triazatricyclo[9.4.0.0^2,7]pentadeca-1(11),2(7),3,5,12,14-hexaen-9-one]: the Ki is less than 100 nM.

With `CCN1C(=O)N(c2c(F)cc(NCCNC)cc2F)c2cc(Cl)cc(F)c2-c2cc(Cl)cnc21` [1-61, 4,13-dichloro-10-(2,6-difluoro-4-{[2-(methylamino)ethyl]amino}phenyl)-8-ethyl-15-fluoro-6,8,10-triazatricyclo[9.4.0.0^2,7]pentadeca-1(11),2(7),3,5,12,14-hexaen-9-one], the Ki is less than 100 nM.

On to `CCN1C(=O)N(c2c(F)cc(NCCNC)cc2F)c2cc(C#N)cc(C)c2-c2cc(F)cnc21` [1-62, 10-(2,6-difluoro-4-{[2-(methylamino)ethyl]amino}phenyl)-8-ethyl-4-fluoro-15-methyl-9-oxo-6,8,10-triazatricyclo[9.4.0.0^2,7]pentadeca-1(11),2(7),3,5,12,14-hexaene-13-carbonitrile], for which the Ki is less than 100 nM.

On to `CCN1C(=O)N(c2c(F)cc(NCCNCCO)cc2F)c2cc(C#N)cc(C)c2-c2cc(F)cnc21` [1-63, 10-[2,6-difluoro-4-({2-[(2-hydroxyethyl)amino]ethyl}amino)phenyl]-8-ethyl-4-fluoro-15-methyl-9-oxo-6,8,10-triazatricyclo[9.4.0.0^2,7]pentadeca-1(11),2(7),3,5,12,14-hexaene-13-carbonitrile], for which the Ki is less than 100 nM.

As for `CCN1C(=O)N(c2c(F)cc(NCCNCCCC(=O)O)cc2F)c2cc(Cl)cc(C)c2-c2cc(F)cnc21` [1-64, 4-({2-[(4-{13-chloro-8-ethyl-4-fluoro-15-methyl-9-oxo-6,8,10-triazatricyclo[9.4.0.0^2,7]pentadeca-1(11),2(7),3,5,12,14-hexaen-10-yl}-3,5-difluorophenyl)amino]ethyl}amino)butanoic acid], the Ki was less than 100 nM.

Turning to `CCN1C(=O)N(c2c(F)cc(N3CC[C@@H](N)C3)cc2F)c2cc(Cl)cc(C)c2-c2cc(F)cnc21` [1-65, 10-{4-[(3R)-3-aminopyrrolidin-1-yl]-2,6-difluorophenyl}-13-chloro-8-ethyl-4-fluoro-15-methyl-6,8,10-triazatricyclo[9.4.0.0^2,7]pentadeca-1(11),2(7),3,5,12,14-hexaen-9-one], the Ki was less than 100 nM.

Consider `CCN1C(=O)N(c2c(F)cc(NCCNC)cc2F)c2cc(C(F)(F)F)ccc2-c2cc(F)cnc21` [1-66, 10-(2,6-difluoro-4-{[2-(methylamino)ethyl]amino}phenyl)-8-ethyl-4-fluoro-13-(trifluoromethyl)-6,8,10-triazatricyclo[9.4.0.0^2,7]pentadeca-1(11),2(7),3,5,12,14-hexaen-9-one], for which the Ki is less than 100 nM.

Turning to `CCN1C(=O)N(c2c(F)cc(NCCNCCO)cc2F)c2cc(C(F)(F)F)ccc2-c2cc(F)cnc21` [1-67, 10-[2,6-difluoro-4-({2-[(2-hydroxyethyl)amino]ethyl}amino)phenyl]-8-ethyl-4-fluoro-13-(trifluoromethyl)-6,8,10-triazatricyclo[9.4.0.0^2,7]pentadeca-1(11),2(7),3,5,12,14-hexaen-9-one], the Ki is less than 100 nM.

Take `CCN1C(=O)N(c2c(F)cc(NCCNCCCC(=O)O)cc2F)c2cc(C#N)cc(C)c2-c2cc(F)cnc21` [1-68, 4-({2-[(4-{13-cyano-8-ethyl-4-fluoro-15-methyl-9-oxo-6,8,10-triazatricyclo[9.4.0.0^2,7]pentadeca-1(11),2(7),3,5,12,14-hexaen-10-yl}-3,5-difluorophenyl)amino]ethyl}amino)butanoic acid]: the Ki is less than 100 nM.

Regarding `CCN1C(=O)N(c2c(F)cc(NCCNCCCC(=O)O)cc2F)c2cc(C(F)(F)F)ccc2-c2cc(F)cnc21` [1-69, 4-{[2-({4-[8-ethyl-4-fluoro-9-oxo-13-(trifluoromethyl)-6,8,10-triazatricyclo[9.4.0.0^2,7]pentadeca-1(11),2(7),3,5,12,14-hexaen-10-yl]-3,5-difluorophenyl}amino)ethyl]amino}butanoic acid], the Ki was less than 100 nM.

For the compound `CCN1C(=O)N(c2c(F)cc(NCCN(C)CCCC(=O)O)cc2F)c2cc(Cl)ccc2-c2cc(Cl)cnc21` [1-70, 4-({2-[(4-{4,13-dichloro-8-ethyl-9-oxo-6,8,10-triazatricyclo[9.4.0.0^2,7]pentadeca-1(11),2(7),3,5,12,14-hexaen-10-yl}-3,5-difluorophenyl)amino]ethyl}(methyl)amino)butanoic acid], the Ki was less than 100 nM.

On to `CCN1C(=O)N(c2c(F)cc(N[C@@H](C)CNCCO)cc2F)c2cc(Cl)ccc2-c2cc(Cl)cnc21` [1-71, 4,13-dichloro-10-(2,6-difluoro-4-{[(2S)-1-[(2-hydroxyethyl)amino]propan-2-yl]amino}phenyl)-8-ethyl-6,8,10-triazatricyclo[9.4.0.0^2,7]pentadeca-1(11),2(7),3,5,12,14-hexaen-9-one], for which the Ki is less than 100 nM.

Consider `CCN1C(=O)N(c2c(F)cc(NCCNCCC(=O)O)cc2F)c2cc(Cl)ccc2-c2cc(Cl)cnc21` [1-72, 3-({2-[(4-{4,13-dichloro-8-ethyl-9-oxo-6,8,10-triazatricyclo[9.4.0.0^2,7]pentadeca-1(11),2(7),3,5,12,14-hexaen-10-yl}-3,5-difluorophenyl)amino]ethyl}amino)propanoic acid], for which the inhibition constant (Ki) was less than 100 nM.
